According to patent publication US20240148821A1, “PHARMACEUTICAL USE OF CYCLIC PEPTIDE COMPOUND” (CHUGAI SEIYAKU KABUSHIKI KAISHA, priority 2021, published 2024):
Numbered stars: 1 amine (or outer) side, 2 acyl side, 3 side chain; on linkers, the order of the positions; unused ones are H or OH. Bridge positions count the residues as written; N and C are the ends. Square brackets hold non-standard residues; d marks the D form. Peptide text beside a SMILES is read from it. * marks the point of attachment. hPhe(3-Cl-4-CF3) = N[C@@H](CCc1ccc(C(F)(F)F)c(Cl)c1)C(=O)O; hPhe(3-F,4-CF3) = N[C@@H](CCc1ccc(C(F)(F)F)c(F)c1)C(=O)O; X33 = O=C([C@H](CCc1c(F)c(F)c(F)c(F)c1F)N[*:1])[*:2]; X71 = O=C([C@H](CCc1ccc(C(F)(F)F)cc1F)N[*:1])[*:2]; X56 = O=C([C@H](CCc1cccc(C(F)(F)F)c1)N[*:1])[*:2]; X118 = O=C([C@H](CCc1c(F)cc(F)cc1F)N[*:1])[*:2]; X103 = O=C([C@H](CCc1c(F)cccc1Cl)N[*:1])[*:2]; NMePhe(4-Cl) = CN[C@@H](Cc1ccc(Cl)cc1)C(=O)O; X29 = O=C([C@H](CCc1cc(Cl)ccc1F)N[*:1])[*:2]; NMePhe(4-Me) = CN[C@@H](Cc1ccc(C)cc1)C(=O)O; NMeGly(cPent) = CN[C@H](C(=O)O)C1CCCC1; Phe(3-I) = N[C@@H](Cc1cccc(I)c1)C(=O)O; NMeCha = CN[C@@H](CC1CCCCC1)C(=O)O; Azetidine(3,3-F2) = FC1(F)CN(*)C1; NMeF = CN[C@@H](Cc1ccccc1)C(=O)O; N(CH2CH2)2CF2 = FC1(F)CCN(*)CC1; NMeE = CN[C@@H](CCC(=O)O)C(=O)O; NMeD = CN[C@@H](CC(=O)O)C(=O)O; NMeL = CN[C@@H](CC(C)C)C(=O)O; d(β3hA) = C[C@@H](N)CC(=O)O; Azetidin(1-yl) = C1CN(*)C1; Morpholide = C1CN(*)CCO1; NMeA = CN[C@@H](C)C(=O)O; NMeAib = CNC(C)(C)C(=O)O; Piperidide = C1CCN(*)CC1; Pyrrolidide = C1CCN(*)C1; Ac5c = NC1(C(=O)O)CCCC1; Aze = O=C(O)[C@@H]1CCN1; X80 = FC1(F)CCCN(*)C1; Sar = CNCC(=O)O

Target: protein-protein interaction between Kras and SOS1 (biotin-tagged human Kras loaded with GDP, His-tagged human SOS1) (Homo sapiens (Human), UniProt P01116, G12D)
Assay: Protein-protein interaction inhibition between Kras and SOS1 (KrasG12D-SOS PPI) using AlphaScreen;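 further: kras produced in E. coli, Ni-coupled donor beads and streptavidin acceptor beads, excitation 680 nm with emission detected at 520–620 nm via singlet oxygen transfer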
Assay type: biochemical
Conditions: not given

Structure (SMILES) | IC50
CC[C@H](C)[C@@H]1NC(=O)[C@H](CC(C)C)N(C)C(=O)C[C@@H](C(=O)N(C)C)N(C)C(=O)[C@H](C2CCCC2)N(C)C(=O)C2(CCCC2)NC(=O)[C@H](CC(=O)N2CCCC2)N(C)C(=O)[C@H](CCc2ccc(C(F)(F)F)c(Cl)c2)NC(=O)CN(C)C(=O)[C@H](CC2CCCCC2)N(C)C(=O)[C@@H]2CCN2C(=O)[C@H](C)N(C)C1=O [Compound 2097] ([NMeL]I[NMeA][Aze][NMeCha][Sar][hPhe(3-Cl-4-CF3)][NMeD](Pyrrolidide)[Ac5c][NMeGly(cPent)][NMeD]-NMe2; lactam N-11) | 0.57 nM
CC[C@H](C)[C@@H]1NC(=O)[C@H](CC(C)C)N(C)C(=O)C[C@@H](C(=O)N2CCCC(F)(F)C2)N(C)C(=O)[C@H](CC(C)C)NC(=O)C(C)(C)N(C)C(=O)[C@H](Cc2ccc(OC)cc2)NC(=O)[C@H](Cc2cccc(I)c2)NC(=O)CN(C)C(=O)[C@H](Cc2ccc(C)cc2)N(C)C(=O)CN(C)C(=O)CN(C)C1=O [Compound 2099, (3S,9S,12S,18S,27S,30S,34S)-34-(3,3-difluoropiperidine-1-carbonyl)-12-[(3-iodophenyl)methyl]-3,30-diisobutyl-9-[(4-methoxyphenyl)methyl]-1,6,6,7,16,19,22,25,31-nonamethyl-27-[(1S)-1-methylpropyl]-18-(p-tolylmethyl) 1,4,7,10,13,16,19,22,25,28,31-undecazacyclotetratriacontane-2,5,8,11,14,17,20,23,26,29,32-undecone] ([NMeL]I[Sar][Sar][NMePhe(4-Me)][Sar][Phe(3-I)]Y(Me)[NMeAib]L[NMeD]-X80; lactam N-11) | 25 nM
CC[C@H](C)[C@@H]1NC(=O)[C@H](CC(C)C)N(C)C(=O)C[C@@H](C(=O)N(C)C)N(C)C(=O)[C@H](C2CCCC2)N(C)C(=O)C2(CCCC2)NC(=O)[C@H](CC(=O)N2CCCCC2)N(C)C(=O)[C@H](CCc2ccc(C(F)(F)F)c(Cl)c2)NC(=O)CN(C)C(=O)[C@H](CC2CCCCC2)N(C)C(=O)[C@@H]2CCN2C(=O)[C@H](C)N(C)C1=O [Compound 2105] ([NMeL]I[NMeA][Aze][NMeCha][Sar][hPhe(3-Cl-4-CF3)][NMeD](Piperidide)[Ac5c][NMeGly(cPent)][NMeD]-NMe2; lactam N-11) | 2.6 nM

Same assay, conditions: AlphaScreen; biotin-tagged human Kras loaded with GDP, His-tagged human SOS1; read-out: KRAS G12D-SOS PPI IC50

Structure (SMILES) | IC50
CC[C@H](C)[C@@H]1NC(=O)[C@H](C)N(C)C(=O)C[C@@H](C)NC(=O)[C@H](CC(C)C)N(C)C(=O)[C@H](Cc2ccccc2)N(C)C(=O)[C@H](CC(C)C)NC(=O)[C@H](CCc2c(F)cc(F)cc2F)NC(=O)CN(C)C(=O)[C@H](Cc2ccc(Cl)cc2)N(C)C(=O)CN(C)C(=O)CN(C)C1=O [Compound 2090] (cyclo(I[Sar][Sar][NMePhe(4-Cl)][Sar][X118]L[NMeF][NMeL][d(β3hA)][NMeA])) | 380 nM
CC[C@H](C)[C@@H]1NC(=O)[C@H](C)N(C)C(=O)C[C@@H](C)NC(=O)[C@H](CC(C)C)N(C)C(=O)[C@H](Cc2ccccc2)N(C)C(=O)[C@H](CC(C)C)NC(=O)[C@H](CCc2c(F)c(F)c(F)c(F)c2F)NC(=O)CN(C)C(=O)[C@H](Cc2ccc(Cl)cc2)N(C)C(=O)CN(C)C(=O)CN(C)C1=O [Compound 2091] (cyclo(I[Sar][Sar][NMePhe(4-Cl)][Sar][X33]L[NMeF][NMeL][d(β3hA)][NMeA])) | 270 nM
CC[C@H](C)[C@@H]1NC(=O)[C@H](C)N(C)C(=O)C[C@@H](C)NC(=O)[C@H](CC(C)C)N(C)C(=O)[C@H](Cc2ccccc2)N(C)C(=O)[C@H](CC(C)C)NC(=O)[C@H](CCc2c(F)cccc2Cl)NC(=O)CN(C)C(=O)[C@H](Cc2ccc(Cl)cc2)N(C)C(=O)CN(C)C(=O)CN(C)C1=O [Compound 2092] (cyclo(I[Sar][Sar][NMePhe(4-Cl)][Sar][X103]L[NMeF][NMeL][d(β3hA)][NMeA])) | 350 nM
CC[C@H](C)[C@@H]1NC(=O)[C@H](C)N(C)C(=O)C[C@@H](C)NC(=O)[C@H](CC(C)C)N(C)C(=O)[C@H](Cc2ccccc2)N(C)C(=O)[C@H](CC(C)C)NC(=O)[C@H](CCc2ccc(C(F)(F)F)c(F)c2)NC(=O)CN(C)C(=O)[C@H](Cc2ccc(Cl)cc2)N(C)C(=O)CN(C)C(=O)CN(C)C1=O [Compound 2093] (cyclo(I[Sar][Sar][NMePhe(4-Cl)][Sar][hPhe(3-F,4-CF3)]L[NMeF][NMeL][d(β3hA)][NMeA])) | 37 nM
CC[C@H](C)[C@@H]1NC(=O)[C@H](C)N(C)C(=O)C[C@@H](C)NC(=O)[C@H](CC(C)C)N(C)C(=O)[C@H](Cc2ccccc2)N(C)C(=O)[C@H](CC(C)C)NC(=O)[C@H](CCc2cc(Cl)ccc2F)NC(=O)CN(C)C(=O)[C@H](Cc2ccc(Cl)cc2)N(C)C(=O)CN(C)C(=O)CN(C)C1=O [Compound 2094] (cyclo(I[Sar][Sar][NMePhe(4-Cl)][Sar][X29]L[NMeF][NMeL][d(β3hA)][NMeA])) | 200 nM
CC[C@H](C)[C@@H]1NC(=O)[C@H](C)N(C)C(=O)C[C@@H](C)NC(=O)[C@H](CC(C)C)N(C)C(=O)[C@H](Cc2ccccc2)N(C)C(=O)[C@H](CC(C)C)NC(=O)[C@H](CCc2cccc(C(F)(F)F)c2)NC(=O)CN(C)C(=O)[C@H](Cc2ccc(Cl)cc2)N(C)C(=O)CN(C)C(=O)CN(C)C1=O [Compound 2095] (cyclo(I[Sar][Sar][NMePhe(4-Cl)][Sar][X56]L[NMeF][NMeL][d(β3hA)][NMeA])) | 240 nM
CC[C@H](C)[C@@H]1NC(=O)[C@H](C)N(C)C(=O)C[C@@H](C(=O)N2CCCC2)NC(=O)[C@H](CC(C)C)N(C)C(=O)[C@H](Cc2ccccc2)N(C)C(=O)[C@@H]2CCCN2C(=O)[C@H](CCc2ccc(C(F)(F)F)cc2F)NC(=O)CN(C)C(=O)[C@H](Cc2ccc(Cl)cc2)N(C)C(=O)CN(C)C(=O)CN(C)C1=O [Compound 2096, (3S,9S,18S,21S,25S,28S,31S,34S)-31-benzyl-9-[(4-chlorophenyl)methyl]-3-[2-[2-fluoro-4-(trifluoromethyl)phenyl]ethyl]-28-isobutyl-7,10,13,16,21,22,29,32-octamethyl-18-[(1S)-1-methylpropyl]-25-(pyrrolidine-1-carbonyl)-1,4,7,10,13,16,19,22,26,29,32-undecazabicyclo[32.3.0]heptatriacontane-2,5,8,11,14,17,20,23,27,30,33-undecone] ([NMeA]I[Sar][Sar][NMePhe(4-Cl)][Sar][X71]P[NMeF][NMeL]D-Pyrrolidide; lactam N-11) | 19 nM
CC[C@H](C)[C@@H]1NC(=O)[C@H](CC(C)C)N(C)C(=O)C[C@@H](C(=O)N2CCOCC2)N(C)C(=O)[C@H](C2CCCC2)N(C)C(=O)C2(CCCC2)NC(=O)[C@H](CCC(=O)N2CC(F)(F)C2)N(C)C(=O)[C@H](CCc2ccc(C(F)(F)F)c(Cl)c2)NC(=O)CN(C)C(=O)[C@H](CC2CCCCC2)N(C)C(=O)[C@@H]2CCN2C(=O)[C@H](C)N(C)C1=O [Compound 2098] ([NMeL]I[NMeA][Aze][NMeCha][Sar][hPhe(3-Cl-4-CF3)][NMeE](Azetidine(3,3-F2))[Ac5c][NMeGly(cPent)][NMeD]-Morpholide; lactam N-11) | 8 nM
CC[C@H](C)[C@@H]1NC(=O)[C@H](CC(C)C)N(C)C(=O)C[C@@H](C(=O)N2CCC(F)(F)CC2)N(C)C(=O)[C@H](CC(C)C)NC(=O)C(C)(C)N(C)C(=O)[C@H](Cc2ccc(OC)cc2)NC(=O)[C@H](Cc2cccc(I)c2)NC(=O)CN(C)C(=O)[C@H](Cc2ccc(C)cc2)N(C)C(=O)CN(C)C(=O)CN(C)C1=O [Compound 2101, (3S,9S,12S,18S,27S,30S,34S)-34-(4,4-difluoropiperidine-1-carbonyl)-12-[(3-iodophenyl)methyl]-3,30-diisobutyl-9-[(4-methoxyphenyl)methyl]-1,6,6,7,16,19,22,25,31-nonamethyl-27-[(1S)-1-methylpropyl]-18-(p-tolylmethyl)-1,4,7,10,13,16,19,22,25,28,31-undecazacyclotetratriacontane-2,5,8,11,14,17,20,23,26,29,32-undecone] ([NMeL]I[Sar][Sar][NMePhe(4-Me)][Sar][Phe(3-I)]Y(Me)[NMeAib]L[NMeD]-{N(CH2CH2)2CF2}; lactam N-11) | 53 nM
CC[C@H](C)[C@@H]1NC(=O)[C@H](CC(C)C)N(C)C(=O)C[C@@H](C(=O)N2CCOCC2)N(C)C(=O)[C@H](C2CCCC2)N(C)C(=O)C2(CCCC2)NC(=O)[C@H](CCC(=O)N2CCC2)N(C)C(=O)[C@H](CCc2ccc(C(F)(F)F)c(Cl)c2)NC(=O)CN(C)C(=O)[C@H](CC2CCCCC2)N(C)C(=O)[C@@H]2CCN2C(=O)[C@H](C)N(C)C1=O [Compound 2103] ([NMeL]I[NMeA][Aze][NMeCha][Sar][hPhe(3-Cl-4-CF3)][NMeE](Azetidin(1-yl))[Ac5c][NMeGly(cPent)][NMeD]-Morpholide; lactam N-11) | 8.3 nM
CC[C@H](C)[C@@H]1NC(=O)[C@H](CC(C)C)N(C)C(=O)C[C@@H](C(=O)N2CCOCC2)N(C)C(=O)[C@H](C2CCCC2)N(C)C(=O)C2(CCCC2)NC(=O)[C@H](CCC(=O)N2CCCC2)N(C)C(=O)[C@H](CCc2ccc(C(F)(F)F)c(Cl)c2)NC(=O)CN(C)C(=O)[C@H](CC2CCCCC2)N(C)C(=O)[C@@H]2CCN2C(=O)[C@H](C)N(C)C1=O [Compound 2104] ([NMeL]I[NMeA][Aze][NMeCha][Sar][hPhe(3-Cl-4-CF3)][NMeE](Pyrrolidide)[Ac5c][NMeGly(cPent)][NMeD]-Morpholide; lactam N-11) | 10 nM
CC[C@H](C)[C@@H]1NC(=O)[C@H](CC(C)C)N(C)C(=O)C[C@@H](C(=O)N(C)C)N(C)C(=O)[C@H](C2CCCC2)N(C)C(=O)C2(CCCC2)NC(=O)[C@H](CC(=O)N(C)C)N(C)C(=O)[C@H](CCc2ccc(C(F)(F)F)c(Cl)c2)NC(=O)CN(C)C(=O)[C@H](CC2CCCCC2)N(C)C(=O)[C@@H]2CCN2C(=O)[C@H](C)N(C)C1=O [Compound 2106, (3S,6S,9S,13S,16S,22S,25S,31S,34S)-25-[2-[3-chloro-4-(trifluoromethyl)phenyl]ethyl]-31-(cyclohexylmethyl)-16-cyclopentyl-22-[2-(dimethylamino)-2-oxo-ethyl]-9-isobutyl-N,N,3,4,10,14,17,23,29,32-decamethyl-6-[(1S)-1-methylpropyl]-2,5,8,11,15,18,21,24,27,30,33-undecaoxo-spiro[1,4,7,10,14,17,20,23,26,29,32-undecazabicyclo[32.2.0]hexatriacontane-19,1-cyclopentane]-13-carboxamide] ([NMeL]I[NMeA][Aze][NMeCha][Sar][hPhe(3-Cl-4-CF3)][NMeD](NMe2)[Ac5c][NMeGly(cPent)][NMeD]-NMe2; lactam N-11) | 2 nM
